{"source": "patent US20230146455A1", "about": "“TREATMENT OF INFLAMMATORY DISEASES WITH PEPTIDES AND PHARMACEUTICAL COMPOSITIONS” (Yuyu Pharma, Inc., priority 2020, published 2023)", "test_system": "IL-6", "experiment": "Example 9 Luminex, LPS hPBMCs: IL-6", "type": "cell-based, human", "conditions": "Bead IL-6", "procedure": "Treatment Human PBMCs were pretreated with YY-101, YDE-011 and YDE-043 or reference compound; Xiidra® at various concentration (ranging from 1 nM to 100 uM) for 2 h before stimulation. An equal volume of 0.5% DMSO was used as a vehicle control. Then, the cells were treated with LPS at 5 ug/ml. The supernatants from treated cells were harvested at 24 h and placed in a 96 well for Luminex cytokine & chemokine profiling using a Luminex 200 multiplex assay (Luminex; R&D system, USA).\nThe main study arm with triplicate wells per group in a 24-well plate: • 1. Blank • 2. PBMC: 0.5% DMSO • 3. PBMC+LPS (5 ug/ml) • 4. PBMC+YY-101 100 uM • 5. PBMC+YY-101 10 uM • 6. PBMC+YY-101 1 uM • 7. PBMC+YY-101 0.1 uM • 8. PBMC+YY-101 0.01 uM • 9. PBMC+LPS (5 ug/ml)+Xiidra®100 uM • 10. PBMC+LPS (5 ug/ml)+Xiidra® 10 uM • 11. PBMC+LPS (5 ug/ml)+Xiidra® 1 uM • 12. PBMC+LPS (5 ug/ml)+Xiidra®0.1 uM • 13. PBMC+LPS (5 ug/ml)+Xiidra®0.01 uM • 14. PBMC+LPS (5 ug/ml)+Xiidra®0.001 uM • 15. PBMC+LPS (5 ug/ml)+YY-101 100 uM • 16. PBMC+LPS (5 ug/ml)+YY-101 10 uM • 17. PBMC+LPS (5 ug/ml)+YY-101 1 uM • 18. PBMC+LPS (5 ug/ml)+YY-101 0.1 uM • 19. PBMC+LPS (5 ug/ml)+YY-101 0.01 uM • 20. PBMC+LPS (5 ug/ml)+YY-101 0.001 uM • 21. PBMC+LPS (5 ug/ml)+YDE-011 100 uM • 22. PBMC+LPS (5 ug/ml)+YDE-011 10 uM • 23. PBMC+LPS (5 ug/ml)+YDE-011 1 uM • 24. PBMC+LPS (5 ug/ml)+YDE-011 0.1 uM • 25. PBMC+LPS (5 ug/ml)+YDE-011 0.01 uM • 26. PBMC+LPS (5 ug/ml)+YDE-011 0.001 uM • 27. PBMC+LPS (5 ug/ml)+YDE-043 100 uM • 28. PBMC+LPS (5 ug/ml)+YDE-043 10 uM • 29. PBMC+LPS (5 ug/ml)+YDE-043 1 uM • 30. PBMC+LPS (5 ug/ml)+YDE-043 0.1 uM • 31. PBMC+LPS (5 ug/ml)+YDE-043 0.01 uM • 32. PBMC+LPS (5 ug/ml)+YDE-043 0.001 uM\nMultiplex assay was used to measure 30 cytokines and chemokines. The 1:2, 1:10 and 1:200 diluted cell supernatant and serial dilution of the standard were dispensed into a 96 well plate at 50 ul/well. Then, the pre-mixed cocktail of antibody-coated magnetic beads was dispensed at 50 ul/well and incubated at room temperature for 2 h in a horizontal orbital microplate shaker at 800±500 rpm. The beads were washed using a magnetic device to prevent loss. The biotin-antibody was dispensed in 50 ul of each well and incubated at room temperature for 1 h in a shaker at 800±500 rpm. After washing, streptavidin-PE was added at 50 ul/well and incubated at room temperature for 30 min in a shaker under the same conditions. Finally, after washing, wash buffer (100 ul/well) was added to the plate and incubated in a shaker for 2 min. The Luminex™ 200 setting were set according to the manufacturer's protocol. The data was calculated with a standard five-parameter logistic nonlinear regression analysis of the data (xPonent software 4.2, USA). The levels of cytokine/chemokine are normalized to the live cell counts (1×10^5 cells/mL) and presented as concentrations per mL (pg/mL or ng/mL).", "key": {"[1]": {"conditions": "PBMC + LPS(5 ug/ml), 0.001 uM, Mean"}, "[2]": {"conditions": "PBMC + LPS(5 ug/ml), 0.001 uM, single replicates"}, "[3]": {"conditions": "PBMC + LPS(5 ug/ml), 0.01 uM, Mean"}, "[4]": {"conditions": "PBMC + LPS(5 ug/ml), 0.01 uM, single replicates"}, "[5]": {"conditions": "PBMC + LPS(5 ug/ml), 0.1 uM, Mean"}, "[6]": {"conditions": "PBMC + LPS(5 ug/ml), 0.1 uM, single replicates"}, "[7]": {"conditions": "PBMC + LPS(5 ug/ml), 1 uM, Mean"}, "[8]": {"conditions": "PBMC + LPS(5 ug/ml), 1 uM, single replicates"}, "[9]": {"conditions": "PBMC + LPS(5 ug/ml), 10 uM, Mean"}, "[10]": {"conditions": "PBMC + LPS(5 ug/ml), 10 uM, single replicates"}, "[11]": {"conditions": "PBMC + LPS(5 ug/ml), 100 uM, Mean"}, "[12]": {"conditions": "PBMC + LPS(5 ug/ml), 100 uM, single replicates"}, "[13]": {"conditions": "PBMC without LPS, 0.01 uM, Mean"}, "[14]": {"conditions": "PBMC without LPS, 0.01 uM, single replicates"}, "[15]": {"conditions": "PBMC without LPS, 0.1 uM, single replicates"}, "[16]": {"conditions": "PBMC without LPS, 1 uM, single replicates"}}, "note": "Several values for one entry are separate records, joined by “and”; a condition that tells them apart may be missing. Equal entries are not always repeated. Where a SMILES comes first, the peptide text is derived from it. [ ]: non-standard residue; d: D form. Hyp = O=C(O)[C@@H]1C[C@@H](O)CN1"}
{"molecule": "CC(C)C[C@H](NC(=O)CNC(=O)[C@H](CC(=O)O)NC(=O)[C@H](CCC(N)=O)NC(=O)CNC(=O)[C@@H]1C[C@@H](O)CN1)C(=O)N[C@@H](C)C(=O)NCC(=O)N1CCC[C@H]1C(=O)N[C@@H](CCCCN)C(=O)O", "note": "[YY-101] (H-[Hyp]GQDGLAGPK-OH; N-terminus and C-terminus assumed)", "values": [{"measurement": "Concentration", "setting": "[1]", "result": 12498.5, "unit": "pg/mL"}, {"measurement": "MFI", "setting": "[1]", "result": 355.4}, {"measurement": "conc/live cell", "setting": "[1]", "result": 1952.7, "unit": "pg/10^5"}, {"measurement": "Concentration", "setting": "[2]", "result": "13037.8 pg/mL and 12646.1 pg/mL and 11811.7 pg/mL"}, {"measurement": "MFI", "setting": "[2]", "result": "371.3 and 359.8 and 335.3"}, {"measurement": "conc/live cell", "setting": "[2]", "result": "2287.3 pg/10^5 and 1781.1 pg/10^5 and 1789.6 pg/10^5"}, {"measurement": "Concentration", "setting": "[3]", "result": 13304.7, "unit": "pg/mL"}, {"measurement": "MFI", "setting": "[3]", "result": 379.1}, {"measurement": "conc/live cell", "setting": "[3]", "result": 2159.4, "unit": "pg/10^5"}, {"measurement": "Concentration", "setting": "[4]", "result": "13276.3 pg/mL and 13531.9 pg/mL and 13106.0 pg/mL"}, {"measurement": "MFI", "setting": "[4]", "result": "378.3 and 385.8 and 373.3"}, {"measurement": "conc/live cell", "setting": "[4]", "result": "2074.4 pg/10^5 and 2255.3 pg/10^5 and 2148.5 pg/10^5"}, {"measurement": "Concentration", "setting": "[5]", "result": 12816.4, "unit": "pg/mL"}, {"measurement": "MFI", "setting": "[5]", "result": 364.8}, {"measurement": "conc/live cell", "setting": "[5]", "result": 2203.2, "unit": "pg/10^5"}, {"measurement": "Concentration", "setting": "[6]", "result": "12441.7 pg/mL and 13157.1 pg/mL and 12850.5 pg/mL"}, {"measurement": "MFI", "setting": "[6]", "result": "353.8 and 374.8 and 365.8"}, {"measurement": "conc/live cell", "setting": "[6]", "result": "2006.7 pg/10^5 and 2530.2 pg/10^5 and 2072.7 pg/10^5"}, {"measurement": "Concentration", "setting": "[7]", "result": 13020.8, "unit": "pg/mL"}, {"measurement": "MFI", "setting": "[7]", "result": 370.8}, {"measurement": "conc/live cell", "setting": "[7]", "result": 2001.1, "unit": "pg/10^5"}, {"measurement": "Concentration", "setting": "[8]", "result": "13242.2 pg/mL and 12867.5 pg/mL and 12952.6 pg/mL"}, {"measurement": "MFI", "setting": "[8]", "result": "377.3 and 366.3 and 368.8"}, {"measurement": "conc/live cell", "setting": "[8]", "result": "2101.9 pg/10^5 and 1812.3 pg/10^5 and 2089.1 pg/10^5"}, {"measurement": "Concentration", "setting": "[9]", "result": 14020.8, "unit": "pg/mL"}, {"measurement": "MFI", "setting": "[9]", "result": 400.1}, {"measurement": "conc/live cell", "setting": "[9]", "result": 2132.1, "unit": "pg/10^5"}, {"measurement": "Concentration", "setting": "[10]", "result": "13975.0 pg/mL and 15049.6 pg/mL and 13037.8 pg/mL"}, {"measurement": "MFI", "setting": "[10]", "result": "398.8 and 430.3 and 371.3"}, {"measurement": "conc/live cell", "setting": "[10]", "result": "2329.2 pg/10^5 and 2351.5 pg/10^5 and 1715.5 pg/10^5"}, {"measurement": "Concentration", "setting": "[11]", "result": 15533.5, "unit": "pg/mL"}, {"measurement": "MFI", "setting": "[11]", "result": 444.4}, {"measurement": "conc/live cell", "setting": "[11]", "result": 2685.2, "unit": "pg/10^5"}, {"measurement": "Concentration", "setting": "[12]", "result": "16142.7 pg/mL and 15459.3 pg/mL and 14998.4 pg/mL"}, {"measurement": "MFI", "setting": "[12]", "result": "462.3 and 442.3 and 428.8"}, {"measurement": "conc/live cell", "setting": "[12]", "result": "2562.3 pg/10^5 and 2493.4 pg/10^5 and 2999.7 pg/10^5"}, {"measurement": "MFI", "setting": "[13]", "result": 3.3}, {"measurement": "conc/live cell", "setting": "[13]", "result": 0.0, "unit": "pg/10^5"}, {"measurement": "MFI", "setting": "[14]", "result": "4.3 and 2.3"}, {"measurement": "conc/live cell", "setting": "[14]", "result": 0.0, "unit": "pg/10^5"}, {"measurement": "MFI", "setting": "PBMC without LPS, 0.1 uM, Mean", "result": 1.3}, {"measurement": "conc/live cell", "setting": "PBMC without LPS, 0.1 uM, Mean", "result": 0.0, "unit": "pg/10^5"}, {"measurement": "MFI", "setting": "[15]", "result": 1.3}, {"measurement": "conc/live cell", "setting": "[15]", "result": 0.0, "unit": "pg/10^5"}, {"measurement": "MFI", "setting": "PBMC without LPS, 1 uM, Mean", "result": 1.8}, {"measurement": "conc/live cell", "setting": "PBMC without LPS, 1 uM, Mean", "result": 0.0, "unit": "pg/10^5"}, {"measurement": "MFI", "setting": "[16]", "result": "2.3 and 1.3"}, {"measurement": "conc/live cell", "setting": "[16]", "result": 0.0, "unit": "pg/10^5"}, {"measurement": "Concentration", "setting": "PBMC without LPS, 10 uM, Mean", "result": 880.7, "unit": "pg/mL"}, {"measurement": "MFI", "setting": "PBMC without LPS, 10 uM, Mean", "result": 15.3}, {"measurement": "conc/live cell", "setting": "PBMC without LPS, 10 uM, Mean", "result": 68.8, "unit": "pg/10^5"}, {"measurement": "Concentration", "setting": "PBMC without LPS, 10 uM, single replicates", "result": 880.7, "unit": "pg/mL"}]}
